Results published in the supplement of paper PMC4862054.

Columns and labels:
Settings in all cases: incubation time: 72 h
MFM-223 [1] = test: normalised response (% of control), CellTox Green; higher = less cell death (100 = DMSO, 0 = benzethonium chloride kill control)
Outline: (§1)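 Breast cancer cell lines (20 µl suspension) were seeded into 384-well plates holding compound at 5 concentrations in 10-fold steps over a compound-specific 10,000-fold range, then incubated 72 h. CellTox Green fluorescence (485/520 nm) was read first, then CellTiter-Glo luminescence after 10 min at room temperature. Each plate was normalised to 0.1 % DMSO (100) and a positive kill control (0). Each value is the normalised signal at a single concentration of the series.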

MDA-MB-453 [2] = test: as above
Outline: as §1

CAL-51 [3] = test: as above
Outline: as §1

BT-549 [4] = test: as above
Outline: as §1

HDQ-P1 [5] = test: as above
Outline: as §1

BT-474 [6] = test: as above
Outline: as §1

MDA-MB-436 [7] = test: as above
Outline: as §1

MDA-MB-468 [8] = test: as above
Outline: as §1

CAL-85-1 [9] = test: as above
Outline: as §1

HCC1937 [10] = test: as above
Outline: as §1

MCF-10A [11] = test: as above
Outline: as §1

CAL-148 [12] = test: as above
Outline: as §1

HCC1599 [13] = test: as above
Outline: as §1

CAL-120 [14] = test: as above
Outline: as §1

Hs578T [15] = test: as above
Outline: as §1

MDA-MB-231 [16] = test: as above
Outline: as §1

DU-4475 [17] = test: as above
Outline: as §1

HCC1143 [18] = test: as above
Outline: as §1

MFM-223 [19] = test: normalised response (% of control), CellTiter-Glo; higher = more viable cells (100 = DMSO, 0 = benzethonium chloride kill control)
Experimental: (§2)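 DSRT, 72 h incubation, CellTox Green / CellTiter-Glo readout. Signal is normalised to DMSO and benzethonium chloride controls. Value is the normalised response at dose 3.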

MDA-MB-453 [20] = test: as above
Experimental: as §2

SK-BR-3 = test: as above
Experimental: as §2

CAL-51 [21] = test: as above
Experimental: as §2

BT-549 [22] = test: as above
Experimental: as §2

HDQ-P1 [23] = test: as above
Experimental: as §2

BT-474 [24] = test: as above
Experimental: as §2

MDA-MB-436 [25] = test: as above
Experimental: as §2

MDA-MB-468 [26] = test: as above
Experimental: as §2

CAL-85-1 [27] = test: as above
Experimental: as §2

HCC1937 [28] = test: as above
Experimental: as §2

MCF-10A [29] = test: as above
Experimental: as §2

CAL-148 [30] = test: as above
Experimental: as §2

HCC1599 [31] = test: as above
Experimental: as §2

CAL-120 [32] = test: as above
Experimental: as §2

Hs578T [33] = test: as above
Experimental: as §2

MDA-MB-231 [34] = test: as above
Experimental: as §2

DU-4475 [35] = test: as above
Experimental: as §2

HCC1143 [36] = test: as above
Experimental: as §2

SMILES	normalised response (MFM-223 [1])	normalised response (MDA-MB-453 [2])	normalised response (CAL-51 [3])	normalised response (BT-549 [4])	normalised response (HDQ-P1 [5])	normalised response (BT-474 [6])	normalised response (MDA-MB-436 [7])	normalised response (MDA-MB-468 [8])	normalised response (CAL-85-1 [9])	normalised response (HCC1937 [10])	normalised response (MCF-10A [11])	normalised response (CAL-148 [12])	normalised response (HCC1599 [13])	normalised response (CAL-120 [14])	normalised response (Hs578T [15])	normalised response (MDA-MB-231 [16])	normalised response (DU-4475 [17])	normalised response (HCC1143 [18])	normalised response (MFM-223 [19])	normalised response (MDA-MB-453 [20])	normalised response (SK-BR-3)	normalised response (CAL-51 [21])	normalised response (BT-549 [22])	normalised response (HDQ-P1 [23])	normalised response (BT-474 [24])	normalised response (MDA-MB-436 [25])	normalised response (MDA-MB-468 [26])	normalised response (CAL-85-1 [27])	normalised response (HCC1937 [28])	normalised response (MCF-10A [29])	normalised response (CAL-148 [30])	normalised response (HCC1599 [31])	normalised response (CAL-120 [32])	normalised response (Hs578T [33])	normalised response (MDA-MB-231 [34])	normalised response (DU-4475 [35])	normalised response (HCC1143 [36])
COc1ccc(C2=N[C@@H](c3ccc(Cl)cc3)[C@@H](c3ccc(Cl)cc3)N2C(=O)N2CCNC(=O)C2)c(OC(C)C)c1 [Nutlin-3] (100 nM)	95.2%	97.3%	97.1%	99%	97.3%	71.6%	64%	100%	102%	87.5%	103%	97.2%	102%	102%	101%	100%	102%	109%	102%	108%	104%	64%	107%	99.9%	101%	102%	100%	92.4%	95.4%	96.7%	115%	105%	99.5%	103%	102%	104%	105%
C#Cc1cccc(Nc2ncnc3cc(OC)c(OCCCCCCC(=O)NO)cc23)c1 [CUDC-101] (100 nM)	103%	101%	82.4%	115%	109%	97%		106%	93.8%	89.5%	101%	82.4%	103%	84.2%	73.6%	70.3%	97%	111%	78.2%	60.1%	84.2%	62.1%	105%	84%	91.8%	96.8%	74.1%	78.5%	93.4%	65.4%	95.5%	105%	93.3%	94.7%	90.9%	96.3%	90.9%
O=C(c1ccc(OCCN2CCCCC2)cc1)c1c(-c2ccc(O)cc2)sc2cc(O)ccc12 [Raloxifene] (100 nM)	91.7%	107%	97.2%	92.5%	90.1%	104%	107%	102%	98.3%	108%	93.2%	101%	92.4%	98.8%	94.3%	98.8%	103%	99.7%	104%	99.7%	104%	87.8%	98.3%	106%	101%	99.9%	98.7%	104%	104%	103%	107%	100%	99.1%	106%	105%	100%	109%
Cn1cnc2c(F)c(Nc3ccc(Br)cc3F)c(C(=O)NOCCO)cc21 [MEK-162] (10 nM)	102%	104%	112%	82.7%	102%	90.8%	99.8%	125%	99.8%	78.5%	68.5%	103%	93%	97.6%	108%	81.9%	97.6%	73%	99.4%	105%	101%	114%	94.5%	88.9%	103%	103%	93%	95.2%	90.8%	70.8%	101%	93.8%	97.9%	90.5%	99.3%	92.9%	94.8%
CC(=O)O[C@H]1C(=O)[C@@]2(C)[C@H]([C@H](OC(=O)c3ccccc3)[C@]3(O)C[C@H](OC(=O)[C@H](O)[C@@H](NC(=O)c4ccccc4)c4ccccc4)C(C)=C1C3(C)C)[C@]1(OC(C)=O)CO[C@@H]1C[C@@H]2O [Paclitaxel] (10 nM)	59.4%	92.9%	19.9%	72.5%	87.9%	74.6%	-40.2%	41.3%	20.9%	86.7%	78.9%	39.4%	91.5%	89.9%	34.1%	41%	97.6%	88.4%	61.6%	80.2%	16.9%	52.7%	34%	69.1%	60.3%	43%	28.7%	31%	68.2%	52.6%	42.7%	80.5%	70.1%	43.3%	62.9%	89%	42.3%
COc1ncc(-c2ccc3nccc(-c4ccnnc4)c3c2)cc1NS(=O)(=O)c1ccc(F)cc1F (10 nM)	96.3%	102%	104%	106%	89.5%	93.4%	106%	68.8%	81.9%	96.1%	110%	91.5%	112%	102%	95%	106%	101%	107%	82.7%	63.3%	53%	77.2%	72.7%	60.7%	78.3%	84.6%	80.2%	69.5%	78.7%	63.7%	96.1%	83.4%	75.7%	77.5%	82%	93.1%	85.2%
COC1=CC(c2cc3ccccc3[nH]2)=N/C1=C\c1[nH]c(C)cc1C [Obatoclax] (100 nM)	93.8%	104%	88.2%	103%	53.7%	63%		96.5%	87.6%	88.3%	93.4%	103%	98.6%	95%	84.5%	66.7%	98.6%	89.8%	96.3%	104%	90.5%	87.8%	97.5%	99.6%	88.8%	91.4%	88.4%	89.2%	91.3%	97.3%	86%	93%	98.1%	92.6%	88.4%	99.5%	93.5%
C[C@@H]1C=C2C(=O)O[C@@H]3CC[C@H](C1)[C@]23O [Galiellalactone] (500 nM)	96.2%	104%	115%	89.4%	110%	99.7%		126%	93.5%	100%	104%	99.8%	116%	103%	105%	114%	105%	73.3%	110%	105%	108%	109%	101%	103%	102%	101%	101%	100%	107%	109%	120%	101%	106%	104%	110%	103%	109%
